This passage reports IC50 results from PubChem BioAssay AID1645865 (Buhrlage Lab, Dana-Farber Cancer Institute and Novartis …, 2021).

The structures appear in SMILES notation. Activity calls are given as the source filed them.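 Rule for the calls: active = maximal inhibition of the USP30 enzyme reaching 30% or more across the dose series; inactive = the rest.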 Where only a bound is given, the exact number is not on record here.

By IC50 is commonly meant the concentration that gives 50% inhibition.

For this experiment, the target named is Ubiquitin carboxyl-terminal hydrolase 30 (Homo sapiens) (UniProt Q70CQ3). The experiment in a line: inhibitors of ubiquitin-specific protease 30 deubiquitylating enzyme, concentration dependence, in vitro biochemical, validation of primary hits (AID 1645865). The note with it: purified USP30, Ub-rhodamine cleavage, fluorescence, 2 h.
Chain of Ubiquitin carboxyl-terminal hydrolase 30 (Homo sapiens) (Q70CQ3 whole entry, looked up): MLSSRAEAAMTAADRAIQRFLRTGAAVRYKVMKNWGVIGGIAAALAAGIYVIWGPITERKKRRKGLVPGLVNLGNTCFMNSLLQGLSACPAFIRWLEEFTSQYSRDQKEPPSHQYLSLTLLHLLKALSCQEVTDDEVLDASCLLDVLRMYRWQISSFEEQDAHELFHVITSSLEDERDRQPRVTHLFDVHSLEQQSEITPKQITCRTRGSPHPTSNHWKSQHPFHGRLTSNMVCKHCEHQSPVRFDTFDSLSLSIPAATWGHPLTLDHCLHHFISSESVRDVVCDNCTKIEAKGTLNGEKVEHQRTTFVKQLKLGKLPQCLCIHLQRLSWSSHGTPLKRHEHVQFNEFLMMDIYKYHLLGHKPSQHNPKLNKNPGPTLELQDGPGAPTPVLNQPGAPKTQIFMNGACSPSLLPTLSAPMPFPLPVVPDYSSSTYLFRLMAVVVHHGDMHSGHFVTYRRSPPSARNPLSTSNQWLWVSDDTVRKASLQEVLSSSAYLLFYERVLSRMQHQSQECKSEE
As for `COc1cc(OC)c(NC(=O)Cn2c(=O)n(Cc3ccccc3Cl)c(=O)c3cc(OC)c(OC)cc32)cc1Cl`, the IC50 was 2.28 µM.

Take `COc1ccc(-c2cnnn2-c2ccc(NC(=O)c3c(F)cccc3F)cc2)cc1OC`: the IC50 was > 50 µM (inactive).

Turning to `COc1ccc2nc(SCC(=O)Nc3ccc(NC(C)=O)cc3)c(C)cc2c1`, the IC50 was 4.95 µM.

Turning to `O=C(Nc1cc(F)c2nc(N3CCCC3)ccc2c1)c1ccco1`, the IC50 is > 50 µM (inactive).

As for `Cc1ccc2[nH]c(=O)c(CN(CC3CCCO3)S(=O)(=O)c3ccccc3)cc2c1` (configuration not stated), the IC50 was 39.4 µM.

Consider `O=S(=O)(c1ccccc1)N1CCN2Cc3ccccc3N(Cc3ccccc3)CC2C1` (configuration not stated), for which the IC50 was > 50 µM (inactive).

`CCOc1ccc(NS(=O)(=O)c2ccc(NC(=O)Nc3ccccc3)cc2)cc1`: the IC50 was 17.3 µM.

Regarding `COc1ccccc1CNC(=O)C1CCCN(c2nc3ccsc3c(=O)s2)C1` (configuration not stated), the IC50 was 3.45 µM.

For `O=C(NC(Cc1ccccc1)c1nc2ccccc2[nH]1)C1CC1` (configuration not stated), the IC50 is > 50 µM (inactive).

As to `CC(=O)N1CCOc2cc(S(=O)(=O)N3CCCC3c3cc(C)no3)ccc21` (configuration not stated), the IC50 is > 50 µM (inactive).

For `COc1ccc(-c2nc(SCC(=O)Nc3ccc(Cl)cc3F)n[nH]2)cc1`, the IC50 was > 50 µM (inactive).

As to `Cc1ccc2nc(CNC(=O)c3ccccc3-c3nc(-c4ccc(F)cc4)no3)[nH]c2c1`, the IC50 was 33.9 µM.

Consider `O=C(Nc1cc(Cl)cc(Cl)c1)c1csnn1`, for which the 50% inhibitory concentration (IC50) is 16 µM.

Regarding `Nc1ccc(F)c(NS(=O)(=O)c2ccccc2)c1`, the IC50 is > 50 µM (inactive).

Regarding `O=C(/C=C/c1ccco1)c1cccc([N+](=O)[O-])c1`, the IC50 is 40.1 µM.

With `O=C(c1cc(Cl)ccc1Cl)N1CCN(c2ccc3nnc(-c4ccco4)n3n2)CC1`, the IC50 was > 50 µM (inactive).

Consider `CCCCN1CC(C(=O)Nc2ccc(C(=O)Nc3ccc(Cl)cc3)cc2)CC1=O` (configuration not stated), for which the IC50 was 2.21 µM.

In the case of `O=C(c1cccnc1)N1CCC2(CC1)CC1(CO2)Nc2ccccc2-n2cccc21` (configuration not stated), the IC50 is > 50 µM (inactive).

On to `Cc1oc2ccc(NS(=O)(=O)c3ccc(F)cc3)cc2c1C(=O)OCc1ccccc1`, for which the IC50 was 48.2 µM.

For the compound `Cc1nc(-c2cccc(NC(=O)c3ccccc3Cl)c2)no1`, the IC50 was > 50 µM (inactive).

For the compound `COc1ccc(Nc2nc3c(S(=O)(=O)c4ccc(C)cc4)nnn3c3ccsc23)c(OC)c1`, the IC50 is 0.401 µM.

Take `CCCc1nc2sc3c(NCCCN4CCOCC4)ncnc3c2c2c1CCC2`: the IC50 is > 50 µM (inactive).

`CC(C)(C)C(=O)C1C2C(=O)N(c3ccc4c(c3)OCO4)C(=O)C2C2c3ccccc3C=CN12` (configuration not stated): the IC50 was > 50 µM (inactive).

With `COc1cccc(-c2nc3cnccn3c2NCc2ccc3c(c2)OCO3)c1`, the IC50 was > 50 µM (inactive).

Take `CCN(CC)c1cc(C)c2cc(NC(=O)c3ccncc3)ccc2n1`: the IC50 was > 50 µM (inactive).

With `CC(C)Cn1cc(OC(=O)c2ccc(F)cc2)c2c1nc(-c1ccc(F)cc1)n1c3ccccc3nc21`, the IC50 was > 50 µM (inactive).

On to `COc1cc(OC)c2c(c1)C(=O)C1=C(COC(C)(O)C1)C2=O` (configuration not stated), for which the IC50 was > 50 µM (inactive).

In the case of `Cc1nnc(NC(=O)C2CCN(c3ccc(S(N)(=O)=O)cc3[N+](=O)[O-])CC2)o1`, the IC50 was 40.9 µM.

`CC(C)c1ccc(/C=C/C(=O)N2CCc3ccccc3C2)cc1`: the IC50 was 21.7 µM.

Take `CCOC(=O)c1cc2c(ccn2C)n1Cc1cccc2ccccc12`: the IC50 was > 50 µM (inactive).

In the case of `CCCn1cc(C(=O)N2CCC3(CC2)CC2(CO3)Nc3ccccc3-n3cccc32)c(C)n1` (configuration not stated), the IC50 is > 50 µM (inactive).

Consider `Cc1ccccc1NC(=O)c1ccc(N2CCCCC2)nn1`, for which the IC50 is > 50 µM (inactive).

On to `O=C(Nc1ccc2nccnc2c1)c1cccc(C(F)(F)F)c1`, for which the IC50 was > 50 µM (inactive).

`Cc1cc(C)c2nc3c(cc2c1)CN(Cc1ccco1)C(=O)O3`: the IC50 was > 50 µM (inactive).

As to `CCn1c(=N)n(CCOc2ccc(F)cc2)c2ccccc21`, the IC50 is 31.8 µM.

For `Cc1cccc(CNC(=O)C2CCCN(S(=O)(=O)Cc3ccc(F)cc3)C2)c1` (configuration not stated), the IC50 was 14.5 µM.

As for `Cc1ccc2c(c1)N(Cc1nc(-c3ccc(F)cc3)no1)C(=O)CO2`, the IC50 is > 50 µM (inactive).

As for `O=C(Nc1ccccc1)c1ccc2c(c1)CC(c1ccccc1)OC2=O` (configuration not stated), the IC50 was 7.72 µM.

For `COc1ccc(CCNC(=O)CCCn2c(=O)c3ccccc3n(CC(=O)OCc3ccccc3)c2=O)cc1OC`, the IC50 is 18.3 µM.

Consider `CC(Sc1n[nH]c2nc3ccccc3n12)C(=O)Nc1ccc2c(c1)OCCO2` (configuration not stated), for which the IC50 was > 50 µM (inactive).

On to `COc1ccccc1/C=C/C(=O)Nc1nc2n(n1)C(c1ccc(Cl)cc1)CC(=O)N2` (configuration not stated), for which the IC50 is > 50 µM (inactive).

With `CCS(=O)(=O)c1ccccc1C(=O)Nc1ccc2sc(C)nc2c1`, the IC50 is > 50 µM (inactive).

`CC(C)c1ccc(NC(=O)COC(=O)c2ccc3[nH]c4c(c3c2)CCCC4)cc1`: the IC50 is 34.1 µM.

Turning to `O=C(c1ccco1)N1CCCC2(C1)Nc1cccnc1NC2=NC1CCCC1` (configuration not stated), the IC50 is > 50 µM (inactive).

Turning to `O=C(c1cc(-c2ccc(Cl)cc2)n[nH]1)N1CCN(C(=O)c2ccco2)CC1`, the IC50 was 31.7 µM.

For `Cc1ccc(CNC(=O)c2cnc3ccccc3n2)cc1`, the IC50 is > 50 µM (inactive).

For `CCN(C(=O)c1cc2c(Cl)nc3ccccc3c2s1)c1ccccc1F`, the IC50 was > 50 µM (inactive).

For `COc1ccccc1CNC(=O)CCCn1c(=O)c2ccccc2n(CC(=O)N2CCN(c3ccccc3)CC2)c1=O`, the IC50 was 34.8 µM.

Regarding `O=c1ccc(-c2noc(-c3ccc4cc[nH]c4c3)n2)c[nH]1`, the IC50 is > 50 µM (inactive).

In the case of `O=C(Nc1ccccc1Sc1ncc(-c2ccc(Cl)cc2)cn1)c1ccco1`, the IC50 is 4.01 µM.

Turning to `CC(=O)c1ccc(NC(=O)/C(=C/c2ccco2)n2nnnc2-c2ccccc2)cc1`, the IC50 was > 50 µM (inactive).

As to `Cc1ncncc1C(=O)N1CCCC(C)(c2ncc(Cc3cccc(F)c3)o2)C1` (configuration not stated), the IC50 was > 50 µM (inactive).

Regarding `Cc1nc2nc(SCc3nc4ccccc4n3C)[nH]c2cc1Br`, the IC50 is 4.82 µM.

Take `CCCc1nc2c(sc3nc4c(cc32)COC(C)(C)C4)c(=O)n1CC(=O)Nc1ccccc1C`: the IC50 is 39.7 µM.

Turning to `CC1(C)CC(=O)C2=C(C1)Nc1ccccc1N(C(=O)C(F)(F)F)C2c1cccs1` (configuration not stated), the IC50 is > 50 µM (inactive).

For `CCOc1ccc(NC(=O)COc2cccc3c2CCN(CC)C3=O)cc1`, the IC50 is > 50 µM (inactive).

On to `COc1ccc(NC(=O)c2[nH]nc3c2COc2ccccc2-3)c(OC)c1`, for which the IC50 is 3.47 µM.

Regarding `Cc1ccc(Nc2nc(O)c(CC(=O)Nc3ccccc3C)s2)cc1C`, the IC50 is 17.3 µM.

In the case of `O=C(/C=C/c1ccc(F)cc1)N1CCc2ccccc2C1`, the IC50 was > 50 µM (inactive).

On to `Cc1ccccc1OCCC(=O)Nc1cccc(S(=O)(=O)Nc2ccccc2Cl)c1`, for which the IC50 was > 50 µM (inactive).

Turning to `Cc1ccc2c(c1)[C@]1(C(=O)N2)[C@@H]2C(=O)N(c3cccc(C(F)(F)F)c3)C(=O)[C@@H]2C2CCCN21` (some centres not stated), the IC50 is > 50 µM (inactive).

For `CC(C)NC(=O)CN1C(=O)CC(C)Sc2ccc(S(=O)(=O)N3CCCCC3)cc21` (configuration not stated), the IC50 was 27.1 µM.

On to `COc1ccc2cc3c(nc2c1)OC(=O)N(CCc1cccc(F)c1)C3`, for which the half-maximal inhibitory concentration (IC50) was 0.0686 µM.

As to `O=c1c2cnc(N3CCCCC3)nc2ccn1CCc1ccccc1`, the IC50 is 2.44 µM.

For the compound `CCOc1ccc(CCNC(=O)c2cccc3c2C(=O)N(CCOC)C3)cc1OCC`, the IC50 was > 50 µM (inactive).

As to `CCOc1cc(C2C3=C(CC(C)(C)CC3=O)Nc3onc(C)c32)ccc1O` (configuration not stated), the IC50 is 37.3 µM.

Take `O=C(Nc1ccc(Oc2cccc3cccnc23)cc1)c1cccs1`: the IC50 was > 50 µM (inactive).

For the compound `O=C(CNS(=O)(=O)c1ccc(F)cc1)N1CCCC(c2nnc3ccccn23)C1` (configuration not stated), the IC50 is > 50 µM (inactive).

Take `CCCC[C@@H](C)/C=C(C)/C=C(\C)C(=O)NC1=C[C@](O)(/C=C/C=C/C=C/C(=O)NC2=C(O)CCC2=O)[C@@H]2O[C@@H]2C1=O`: the IC50 is 4.76 µM.

For the compound `COc1ccccc1C(=O)N1CCC(S(=O)(=O)c2ccc(-c3ccco3)cc2)CC1`, the IC50 is > 50 µM (inactive).

For `COc1ccc(-c2cc(-c3nnc(CSc4nc5ccccc5n4C)o3)c3ccccc3n2)cc1OC`, the IC50 is > 50 µM (inactive).

Turning to `CN(C)c1ccc(CCN2CCc3nc4cccnc4cc3C2)cc1`, the IC50 was > 50 µM (inactive).

As to `CCOc1ccccc1NC(=O)Cn1c(=O)n(CCCC(=O)NCc2ccc(C)cc2)c(=O)c2sccc21`, the IC50 is 2.53 µM.

On to `CCOc1ccc(NC(=O)Cn2c(=O)n(CC(=O)NCc3ccc(C)cc3)c(=O)c3sccc32)cc1`, for which the IC50 is 0.465 µM.

In the case of `COc1cccc(CC(=O)Nc2cc(F)c3nc(N4CCOCC4)ccc3c2)c1`, the IC50 was > 50 µM (inactive).

As for `O=C(c1nnn(Cc2ccc(Cl)cc2)c1-n1cccc1)N1CCCC1`, the IC50 is > 50 µM (inactive).

As for `Cc1cc(NC(=O)Cn2c(=O)n(CCCCC(=O)NCc3ccco3)c(=O)c3ccccc32)ccc1Br`, the concentration for half-maximal inhibition (IC50) was 2.09 µM.

With `Fc1ccc(CN2CCc3nc4cccnc4cc3C2)cc1`, the IC50 was > 50 µM (inactive).

Consider `CN(C)Cc1ccc(C(=O)Nc2ccc(-c3nccs3)cc2)cc1`, for which the IC50 was > 50 µM (inactive).

With `O=C(Nc1cccc(F)c1)C1CCCN(S(=O)(=O)N2CCCCCC2)C1` (configuration not stated), the IC50 was 36.4 µM.

As to `CCn1c(SCC(=O)c2c(N)n(CC(C)C)c(=O)n(C)c2=O)nnc1-c1ccccc1`, the IC50 was 9.77 µM.

With `COc1ccc(NC(=O)c2cc(-c3cccnc3)n[nH]2)cc1Cl`, the IC50 is 1.16 µM.

Regarding `Cc1ccc(C)c(NS(=O)(=O)c2cc(-c3cnc(C4CC4)o3)ccc2C)c1`, the IC50 was > 50 µM (inactive).

On to `O=C(COC(=O)c1cc(Cl)c2c(c1)OCO2)Nc1ccc2[nH]c(=O)[nH]c2c1`, for which the IC50 was > 50 µM (inactive).

Regarding `Cc1nc(-c2ccccc2F)sc1C(=O)Nc1cccnc1`, the IC50 was > 50 µM (inactive).

For the compound `COc1ccc(C(=O)CSc2ccc3nnc(CCNC(=O)c4ccc(OC)cc4)n3n2)cc1`, the IC50 is > 50 µM (inactive).

Take `O=C(/C=C/c1ccc2c(c1)OCO2)Nc1nc2c(s1)COCC2`: the IC50 was 25.8 µM.
